{"source": "patent US6184401A", "about": "“Alpha-fluoro alkynoic acids with anticonvulsant activity” (priority 1999, dated 2001)", "key": {"[1]": {"conditions": "anticonvulsant; cited from earlier work"}, "[2]": {"test_system": "animals (seizure induced by pentylenetetrazole)", "assay": "PTZ convulsion test (anticonvulsant activity)", "type": "in vivo", "conditions": "intraperitoneal, sodium salt, PTZ 65 mg/kg s.c. after 15 minutes", "description": "The anti-convulsive activity of the compounds of the invention was determined by the PTZ convulsion test (E. Swinyard et al., 1969, \"Laboratory Evaluation of Antiepileptic Drugs, Review of Laboratory Methods,\" Epilepsia 10, 107-119; E. Swinyard, J. Woodhead, in Antiepileptic Drugs, 2nd ed., D. Woodbury, J. Penry, C. Pippenger, eds., Raven Press, New York, 1982, 111-126). Briefly, animals were dosed intraperitoneally with the sodium salt of the compound to be tested, and then challenged after 15 minutes with a subcutaneous injection of pentylenetetrazole (65 mg/kg). The percentage of animals that were protected from seizure (defined as at least one episode of continuous seizure activity lasting at least five seconds) is reported in Table 1 as \"Anticonvulsant Activity %\"."}, "[3]": {"test_system": "fetuses", "assay": "Teratogenic potential: exencephaly in fetuses of treated pregnant animals", "type": "in vivo", "conditions": "sodium salt, injected day 8 of gestation, fetuses examined day 18", "description": "The teratogenic potential of the compounds was determined by injecting pregnant animals on day 8 of gestation with the sodium salt of the compound to be tested, and by examining the fetuses on day 18 of gestation (H. Nau, 1985, Toxicol. Appl. Pharmacol., 80, 243-250; H. Nau, W. Loscher, 1986, Fund. Appl. Toxicol., 6, 669)."}, "[4]": {"test_system": "hepatotoxicity", "conditions": "effect of the 2-fluoro substituent; cited from earlier work"}, "[5]": {"test_system": "animals", "type": "in vivo", "conditions": "dose 1.5 mmol/kg, sodium salt, after 15 minutes", "description": "The sedative activity of the compounds was determined by the \"Rotorod\" test (Dunham, Miya, 1957, J. Am. Pharm. Assoc., 46, 208-209). Animals were dosed with the sodium salt of the compound to be tested, and after 15 minutes they were placed on the ROTOROD apparatus (Rotorod, Ugobasile, Italy). The percentage of animals that fell from the rod is reported as \"Sedative Activity %\" in Table 1."}, "[6]": {"test_system": "newborns of women taking VPA", "conditions": "newborns of women taking VPA during pregnancy; cited from earlier work"}, "[7]": {"test_system": "mice", "conditions": "cited from earlier work"}, "[8]": {"conditions": "in vivo; cited from earlier work"}, "[9]": {"test_system": "children on polytherapy", "conditions": "young children on polytherapy; cited from earlier work"}}}
{"smiles": "CCCC(F)(CCC)C(=O)O", "note": "[2-fluoro-2-propylpentanoic acid]", "values": [{"measurement": "potency relative to VPA", "setting": "[1]", "value": "less potent than VPA"}]}
{"smiles": "CC#CCC(F)(CCC)C(=O)O", "note": "(centres unmarked) [Example 3, 2-fluoro-2-n-propyl-4-hexynoic acid]", "values": [{"measurement": "Anticonvulsant Activity % (percentage of animals protected from seizure)", "setting": "[2]; dose 1.5 mmol/kg", "value": 20, "unit": "%"}, {"measurement": "Teratogenic Activity % (percent of fetuses exhibiting exencephaly)", "setting": "[3]; dose 3.0 mmol/kg", "value": 2, "unit": "%"}]}
{"smiles": "CC#CCC(F)(CCCCCCC)C(=O)O", "note": "(centres unmarked) [Example 7, 2-fluoro-2-n-heptyl-4-hexynoic acid]", "values": [{"measurement": "Anticonvulsant Activity % (percentage of animals protected from seizure)", "setting": "[2]; dose 0.5 mmol/kg", "value": 60, "unit": "%"}, {"measurement": "Teratogenic Activity % (percent of fetuses exhibiting exencephaly)", "setting": "[3]; dose 1.0 mmol/kg", "value": 0, "unit": "%"}]}
{"smiles": "CC#CCC(F)(CCCCCCCC)C(=O)O", "note": "(centres unmarked) [Example 8, 2-fluoro-2-n-octyl-4-hexynoic acid]", "values": [{"measurement": "Anticonvulsant Activity % (percentage of animals protected from seizure)", "setting": "[2]; dose 0.25 mmol/kg", "value": 40, "unit": "%"}, {"measurement": "Teratogenic Activity % (percent of fetuses exhibiting exencephaly)", "setting": "[3]; dose 0.5 mmol/kg", "value": 0, "unit": "%"}]}
{"smiles": "C=CCC(F)(CCC)C(=O)O", "note": "(centres unmarked) [2-fluoro-2-propyl-4-pentenoic acid]", "values": [{"measurement": "hepatotoxicity relative to 2-propyl-4-pentenoic acid", "setting": "[4]", "value": "reduce hepatotoxicity relative to 2-propyl-4-pentenoic acid"}]}
{"smiles": "CCCC(CCC(F)(F)F)C(=O)O", "note": "(centres unmarked) [5,5,5-trifluoro-2-n-propyl pentanoic acid]", "values": [{"measurement": "potency relative to VPA", "setting": "[1]", "value": "less potent than VPA"}]}
{"smiles": "CCCC(CCC)C(=O)O", "note": "[VPA, 2-propylpentanoic acid]", "values": [{"measurement": "Anticonvulsant Activity % (percentage of animals protected from seizure)", "setting": "[2]; dose 1.0 mmol/kg", "value": 60, "unit": "%"}, {"measurement": "Sedative Activity % (percentage of animals that fell from the rod)", "setting": "[5]", "value": 40, "unit": "%"}, {"measurement": "Teratogenic Activity % (percent of fetuses exhibiting exencephaly)", "setting": "[3]; dose 3.0 mmol/kg", "value": 50, "unit": "%"}, {"measurement": "risk of spina bifida", "setting": "[6]", "value": "1-2%"}, {"measurement": "neural tube defects", "setting": "[7]", "value": "induce neural tube defects in mice"}, {"measurement": "duration of action", "setting": "[8]", "value": "short duration of action"}, {"measurement": "serious side effects", "setting": "[8]", "value": "sedation, potentially fatal hepatotoxicity, and teratogenicity"}, {"measurement": "VPA-induced hepatic fatality rate", "setting": "[9]", "value": "1/500"}]}
{"smiles": "CC#CCC(F)(CCCCC)C(=O)O", "note": "(centres unmarked) [Example 5, 2-fluoro-2-n-pentyl-4-hexynoic acid]", "values": [{"measurement": "Anticonvulsant Activity % (percentage of animals protected from seizure)", "setting": "[2]; dose 1.5 mmol/kg", "value": 80, "unit": "%"}, {"measurement": "Teratogenic Activity % (percent of fetuses exhibiting exencephaly)", "setting": "[3]; dose 1.5 mmol/kg", "value": 1, "unit": "%"}]}
{"smiles": "O=C(O)C(CCC(F)(F)F)CCC(F)(F)F", "note": "[5,5,5-trifluoro-2-(3,3,3-trifluoropropyl) pentanoic acid]", "values": [{"measurement": "potency relative to VPA", "setting": "[1]", "value": "less potent than VPA"}]}
